Measurements as given in patent US12569543B2, “Semaglutide in cardiovascular conditions” (Novo Nordisk A/S, priority 2016, dated 2026).

System: human subjects with type 2 diabetes
Assay: Long-term randomised, double-blind, placebo-controlled cardiovascular outcomes trial with semaglutide
[1] = Table 4, coronary and peripheral, semaglutide arms
[2] = Table 4, individual component of MACE, semaglutide arms
[3] = Table 4, individual component of MACE, semaglutide vs placebo, Cox model
[4] = Table 4, MACE incl. revascularisation, hospitalisation for UAP and heart failure, semaglutide arms
[5] = Table 4, semaglutide vs placebo, Cox model
[6] = Table 5, under first MACE (CV death, non-fatal MI, non-fatal stroke), semaglutide arms
[7] = Table 5, MACE = cardiovascular death, non-fatal MI, non-fatal stroke, all subjects, semaglutide arms
[8] = Table 5 subgroup BMI >30 kg/m^2, semaglutide arms
[9] = Table 5 subgroup BMI ≤30 kg/m^2, semaglutide arms
[10] = Table 5 subgroup Ethnic origin: Asian, semaglutide arms
[11] = Table 5 subgroup Ethnic origin: Black or African-American, semaglutide arms
[12] = Table 5 subgroup Ethnic origin: Other, semaglutide arms
[13] = Table 5 subgroup Ethnic origin: White, semaglutide arms
[14] = Table 5 subgroup Heart failure NYHA class I or no heart failure, semaglutide arms
[15] = Table 5 subgroup Heart failure NYHA class II or III, semaglutide arms
[16] = Table 5 subgroup Sex: Female, semaglutide arms
[17] = Table 5 subgroup Sex: Male, semaglutide arms

Description: A long-term randomised, double-blind, placebo-controlled, four-armed parallel-group, multicentre, multi-national, safety and efficacy trial was carried out to evaluate cardiovascular and other long-term outcomes with semaglutide in 3,297 human subjects with type 2 diabetes.
The subjects were randomised to receive once weekly treatment doses of 0.5 mg semaglutide, 1.0 mg semaglutide, or volume-matched placebo, as an add-on to their standard-of-care treatment, wherein administration started with an initial dose escalation step at 0.25 mg semaglutide once weekly for 4 weeks, and for the 1.0 mg semaglutide group an additional 4 week period at 0.5 mg semaglutide once weekly, or their volume-matched placebo, as shown in Table 1. Additional glucose-lowering medications were allowed to be added to the anti-diabetic regimen to maintain target glycaemic control at the discretion of investigator.
Semaglutide was administered in the form of an aqueous solution comprising semaglutide or placebo, both using a 3 ml disposable pen-injector. This pen-injector was identical for the semaglutide and placebo administrations. This aqueous solution contained 1.34 mg/ml semaglutide, 1.42 mg/ml disodium phosphate dihydrate, 14.0 mg/ml propylene glycol, 5.5 mg/ml phenol, at pH 7.40.
Injections were administered in the thigh, abdomen or upper arm, at any time of day irrespective of meals. The injections were administered on the same day of the week during the trial.
In this trial, “clinical evidence of cardiovascular disease” was present when the subject fulfilled at least one criterion selected from the group consisting of a) to h): • a) prior myocardial infarction, • b) prior stroke or transient ischaemic attack, • c) prior coronary, carotid or peripheral arterial revascularisation, • d) >50% stenosis on angiography or imaging of coronary, carotid or lower extremity arteries, • e) history of symptomatic coronary heart disease (documented by e.g. positive exercise stress test or any cardiac imaging or unstable angina with ECG changes), • f) asymptomatic cardiac ischemia (e.g. documented by positive nuclear imaging test or exercise test or stress echo or any cardiac imaging), • g) heart failure New York Heart Association (NYHA) class and • h) chronic renal impairment (documented (prior to screening) by estimated glomerular filtration rate (eGFR)<60 mL/min/1.73 m^2 per MDRD).
In this trial, “subclinical evidence of cardiovascular disease” was present when the subject fulfilled at least one criterion selected from the group consisting of i) to l): • i) persistent microalbuminuria (30-299 mg/g) or proteinuria, • j) hypertension and left ventricular hypertrophy by ECG or imaging, • k) left ventricular systolic or diastolic dysfunction by imaging, and • l) ankle/brachial index<0.9.
The results of this trial may be presented herein as a number or fraction of subjects experiencing an event. […] The term “hazard ratio” (also referred to as “HR”) as used herein means the instantaneous risk ratio of experiencing an event when administered semaglutide compared to placebo which are the two treatments in this trial. An upper limit of the 95% confidence interval (CI) for the HR of less than 1.00 means that the estimated treatment ratio between semaglutide and placebo with respect to the event of interest is statistically significant in favour of semaglutide on a 5% significance level.

N^6.26-{18-[N-(17-carboxy-heptadecanoyl)-L-γ-glutamyl]-10-oxo-3,6,12,15-tetraoxa-9,18-diazaoctadecanoyl}-[8-(2-amino-2-propanoic acid),34-L-arginine]human glucagon-like peptide 1(7-37) [Semaglutide]
Time to first non-fatal myocardial infarction (Kaplan-Meier plot) (FIG. 1, after a certain period of chronic treatment, vs placebo): particularly good effect
Time to first revascularisation (Kaplan-Meier plot) (FIG. 2, after a certain period of chronic treatment, vs placebo): particularly good effect
Revascularisation, N subjects with at least one event [1]: 83
Revascularisation, percentage of subjects with at least one event [1]: 5.0%
Revascularisation, hazard ratio (Table 4, coronary and peripheral, semaglutide vs placebo, Cox model): 0.65
Cardiovascular death, N subjects with event [2]: 44
Cardiovascular death, percentage of subjects with event [2]: 2.7%
Myocardial infarction, non-fatal, N subjects with at least one event [2]: 47
Myocardial infarction, non-fatal, percentage of subjects with at least one event [2]: 2.9%
Stroke, non-fatal, N subjects with at least one event [2]: 27
Stroke, non-fatal, percentage of subjects with at least one event [2]: 1.6%
Cardiovascular death, hazard ratio [3]: 0.98
Myocardial infarction, non-fatal, hazard ratio [3]: 0.74
Stroke, non-fatal, hazard ratio [3]: 0.61
Time to first MACE, hazard ratio (Table 4, MACE = CV death, non-fatal MI, non-fatal stroke, revascularisation, hospitalisation for UAP or heart failure, semaglutide vs placebo, Cox model): 0.74
First MACE, N subjects experiencing at least one event [4]: 199
First MACE, percentage of subjects experiencing at least one event [4]: 12.1%
Coronary revascularisation, N subjects with at least one event (Table 4, semaglutide arms): 70
Coronary revascularisation, percentage of subjects with at least one event (Table 4, semaglutide arms): 4.2%
Hospitalisation for UAP, N subjects with at least one event (Table 4, semaglutide arms): 22
Hospitalisation for UAP, percentage of subjects with at least one event (Table 4, semaglutide arms): 1.3%
Hospitalisation for heart failure, N subjects with at least one event (Table 4, semaglutide arms): 59
Hospitalisation for heart failure, percentage of subjects with at least one event (Table 4, semaglutide arms): 3.6%
Peripheral revascularisation, N subjects with at least one event (Table 4, semaglutide arms): 16
Peripheral revascularisation, percentage of subjects with at least one event (Table 4, semaglutide arms): 1.0%
Coronary revascularisation, hazard ratio [5]: 0.68
Hospitalisation for UAP, hazard ratio [5]: 0.82
Hospitalisation for heart failure, hazard ratio [5]: 1.11
Peripheral revascularisation, hazard ratio [5]: 0.63
Cardiovascular death, N subjects [6]: 37
Cardiovascular death, percentage of subjects [6]: 2.2%
Myocardial infarction, non-fatal, N subjects [6]: 46
Myocardial infarction, non-fatal, percentage of subjects [6]: 2.8%
Stroke, non-fatal, N subjects [6]: 25
Stroke, non-fatal, percentage of subjects [6]: 1.5%
First MACE, N subjects experiencing at least one event [7]: 108
First MACE, percentage of subjects experiencing at least one event [7]: 6.6%
Time to first MACE, hazard ratio (Table 5, MACE = cardiovascular death, non-fatal MI, non-fatal stroke, all subjects, semaglutide vs placebo, Cox model): 0.74
Time to first MACE, hazard ratio (Table 5 subgroup BMI >30 kg/m^2, MACE = CV death, non-fatal MI, non-fatal stroke, vs placebo): 0.84
First MACE, N subjects with at least one event [8]: 69
First MACE, percentage of subjects with at least one event [8]: 6.6%
Time to first MACE, hazard ratio (Table 5 subgroup BMI ≤30 kg/m^2, MACE = CV death, non-fatal MI, non-fatal stroke, vs placebo): 0.58
First MACE, N subjects with at least one event [9]: 39
First MACE, percentage of subjects with at least one event [9]: 6.6%
Time to first MACE, hazard ratio (Table 5 subgroup Ethnic origin: Asian, MACE = CV death, non-fatal MI, non-fatal stroke, vs placebo): 0.58
First MACE, N subjects with at least one event [10]: 2
First MACE, percentage of subjects with at least one event [10]: 5.7%
Time to first MACE, hazard ratio (Table 5 subgroup Ethnic origin: Black or African-American, MACE = CV death, non-fatal MI, non-fatal stroke, vs placebo): 0.72
First MACE, N subjects with at least one event [11]: 5
First MACE, percentage of subjects with at least one event [11]: 4.6%
Time to first MACE, hazard ratio (Table 5 subgroup Ethnic origin: Other, MACE = CV death, non-fatal MI, non-fatal stroke, vs placebo): 0.46
First MACE, N subjects with at least one event [12]: 93
First MACE, percentage of subjects with at least one event [12]: 6.7%
Time to first MACE, hazard ratio (Table 5 subgroup Ethnic origin: White, MACE = CV death, non-fatal MI, non-fatal stroke, vs placebo): 0.76
First MACE, N subjects with at least one event [13]: 8
First MACE, percentage of subjects with at least one event [13]: 6.6%
Time to first MACE, hazard ratio (Table 5 subgroup Heart failure NYHA class I or no heart failure, MACE = CV death, non-fatal MI, non-fatal stroke, vs placebo): 0.64
First MACE, N subjects with at least one event [14]: 73
First MACE, percentage of subjects with at least one event [14]: 5.4%
Time to first MACE, hazard ratio (Table 5 subgroup Heart failure NYHA class II or III, MACE = CV death, non-fatal MI, non-fatal stroke, vs placebo): 1.03
First MACE, N subjects with at least one event [15]: 35
First MACE, percentage of subjects with at least one event [15]: 12.3%
Time to first MACE, hazard ratio (Table 5 subgroup Sex: Female, MACE = CV death, non-fatal MI, non-fatal stroke, vs placebo): 0.84
First MACE, N subjects with at least one event [16]: 35
First MACE, percentage of subjects with at least one event [16]: 5.5%
Time to first MACE, hazard ratio (Table 5 subgroup Sex: Male, MACE = CV death, non-fatal MI, non-fatal stroke, vs placebo): 0.68
First MACE, N subjects with at least one event [17]: 73
First MACE, percentage of subjects with at least one event [17]: 7.2%
First MACE, N subjects with at least one event (Table 6, 0.5 mg semaglutide once weekly arm): 59
Time to first MACE, hazard ratio (Table 6, 0.5 mg semaglutide once weekly arm vs its placebo, MACE = CV death, non-fatal MI, non-fatal stroke): 0.77
First MACE, N subjects with at least one event (Table 6, 1.0 mg semaglutide once weekly arm): 49
Time to first MACE, hazard ratio (Table 6, 1.0 mg semaglutide once weekly arm vs its placebo, MACE = CV death, non-fatal MI, non-fatal stroke): 0.71
Effect on reducing cardiovascular disease (overall conclusion of the trial, more pronounced in some subgroups): surprisingly good effect on reducing cardiovascular disease
